Data: a melting point compilation (Tetko et al.; mined from patent text by program, amines drawn as free bases though some values may be those of a salt)

SMILES | melting point
CCC1Cc2ccc(NC(=N)c3cccs3)cc2CN1C (stereo not drawn) | 125 to 126 °C
Cc1ccc(-c2ccc3c(c2)C=C(C(=O)Nc2ccc(CN(C)C4CCOCC4)cc2)CCS3(=O)=O)s1 | 229 to 231 °C
CSc1nc(O)c(-c2ccc(C)cc2)c(O)n1 | 226 °C
COc1ccc(NC(=O)C2C(=O)N(C)C(=S)N(C)C2=O)cc1Oc1ccc(C(F)(F)F)cc1Cl | 165 to 168 °C
CCCCC(c1c[nH]cn1)c1cccc(CO)c1O (stereo not drawn) | 93 °C
COc1ccccc1-c1ccc2cnc(NC(=O)Nc3ccc(N4CCN(C)CC4)cc3)nn12 | 229 to 231 °C
COc1ccc(N2CCc3c(C)nc4c(OC)cccc4c32)c(C)c1 | 163 to 167 °C
OCc1cc(I)cc(I)c1I | 156 to 159 °C
O[C@@H](CNCCOc1ccc2oc(-c3ccon3)cc2c1)c1cccc(Cl)c1 | 112 to 120 °C
Cc1cccc(-c2n[nH]cc2-c2ccnc(-c3ccc(S(C)(=O)=O)cc3)c2)n1 | 232 to 234 °C
Cc1cc(C)c(C(=O)c2cc(C(C)(C)C)c(O)c(C(C)(C)C)c2)c(Cl)n1 | 109 to 110 °C
O=C1c2ccccc2C(=O)N1CCCN1CCN(c2ccccc2)CC1 | 105 to 122 °C
O=c1c2cc(CBr)ccc2oc2ncccc12 | 211 to 212 °C
Cc1ccc(S(=O)(=O)OCCCn2c3c(c4ccccc4c2=O)C(=O)c2ccccc2-3)cc1 | 177 to 179 °C
O=[N+]([O-])c1cc2nc(O)c(O)nc2cc1C(F)(F)F | > 300 °C
CC1(Cn2c(=O)n(-c3ccccc3)c3ccccc32)Cn2cc([N+](=O)[O-])nc2O1 (stereo not drawn) | 234 to 235 °C
Cc1n[nH]c(CC#N)c1Oc1cc(Cl)cc(Cl)c1 | 150 to 152 °C
CN(C)CCNC(=O)C(Sc1nc2cc(Cl)ccc2s1)c1ccccc1 (stereo not drawn) | 108 to 109 °C
CSc1c(C(=O)O)ccc(Br)c1Cl | 128 to 130 °C
Cc1ccnc(C(=O)c2[nH]c3ccc(Cl)cc3c2CC(=O)N2CCC(N)C2)c1 (stereo not drawn) | 179 °C

SMILES | melting point
COc1cccc(OCCCN2CCC(C(O)(c3ccc(F)cc3)c3ccc(F)cc3)CC2)c1 | 107 to 108 °C
N#Cc1c(Cl)c(Cl)c(NCCN)c(Cl)c1Cl | 140 to 144 °C
Cc1nc(N2CC(Cc3ccccc3)CC2=O)sc1C(=O)NCc1ccccc1 (stereo not drawn) | 143 to 144 °C
Fc1cc(CC2(Cc3ccncc3)c3ccccc3Oc3ccccc32)ccn1 | 180 to 181 °C
CC(C)(C)c1ccc(C2(N=C=O)CCC3(CC2)OCCO3)cc1 | 103 to 106 °C
CNC(=O)[C@]1(n2cnc3c(NCc4cccc(I)c4)nc(Cl)nc32)SC[C@H](O)[C@@H]1O | 205 to 207 °C
COc1cc(C)c2c(c1OC)CCC1C(=O)N(C)C(=O)C21 (stereo not drawn) | 167 to 169 °C
O=C1NC(=O)C(S(=O)(=O)c2ccccn2)S1 (stereo not drawn) | 129 to 131 °C
CCCCCCCNC(=O)N(C)c1cccc(-c2ccc(C=CC(=O)O)cc2)c1 | 125 to 126 °C
CC(C)(C)C(=O)COC(=O)C1(C(=O)OCc2ccccc2)CCCN(C(=O)OCC(Cl)(Cl)Cl)C1 (stereo not drawn) | 114 °C
O=C(Nc1ccc(OC(F)(F)F)cc1)c1cccc(Cl)c1[N+](=O)[O-] | 171 to 172 °C
O=C(O)c1ccc(OC(F)F)c2oc3ccc(C(F)(F)F)cc3c12 | 280 °C
COc1cc(C(=O)N(C(C)C)C2CCCCC2)ccc1Oc1cc(OC)c(OC)c(OC)c1 | 126 to 128 °C
[N-]=[N+]=NCC1CN(c2cc(F)c(-c3cccnc3)c(F)c2)C(=O)O1 (stereo not drawn) | 97 to 98 °C
CCC1(CC)C(=O)N(CC(O)Cc2cc(C(C)C)c(O)c(C(C)C)c2)C(=O)N(CC(O)Cc2cc(C(C)C)c(O)c(C(C)C)c2)C1=O (stereo not drawn) | 126 to 127 °C
Clc1ccc(N2CCN(Cc3n[nH]c4ccccc34)CC2)cc1 | 223 to 224 °C
O=C(O)c1cc2ccccc2c(=O)s1 | 260 to 262 °C
Cc1cc(-c2ccc(C(F)(F)F)nc2)cc(-c2cccc(-c3cccc(S(N)(=O)=O)c3)c2)n1 | 227 to 232 °C
CCCCOC(=O)C1CC2CC(CP(=O)(O)O)CCC2CN1 (stereo not drawn) | 161 to 169 °C
c1ccc(Nc2ncnc3[nH]ccc23)cc1 | 234 to 236 °C

SMILES | melting point
Cc1nnc2n1-c1sc(CC(=O)N3CCOCC3)cc1C(c1ccccc1Cl)=NC2 | 143 to 144 °C
CC(C)(NCC(F)(F)CN)C(CCn1ccnc1[N+](=O)[O-])=NO | 112 to 114 °C
Cc1c(NC(=O)c2ccc(CC(=O)c3ccccc3)cc2)ccc2cc(CN3CCCC3)cnc12 | 187 °C
O=C1NCCc2c(OCc3ccccc3)cccc21 | 171 to 173 °C
O=C(Nc1c[nH]nc1C(=O)NCc1ccccc1)c1ccccn1 | 204 to 205 °C
Cc1nc(Cl)n(-c2ccccc2)n1 | 81 to 84 °C
CO/C=C(/C(=O)OC)c1ccccc1Oc1cccc(O)c1 | 117 to 118 °C
COc1ccc2c(c1)CCC1C2CCC2(C)C(=O)CC(C)(C)C12 (stereo not drawn) | 145 to 148 °C
CN(C(=O)CN(C(=O)CNC(=O)Nc1cccc(C#N)c1)c1ccccc1)c1ccccc1 | 204 °C
CC(C)c1nc(COC(N)=O)n(Cc2cnc3ccccc3c2)c1Sc1cc(Cl)cc(Cl)c1 | 214 to 216 °C
O=C(NCCCn1cncn1)c1ccc(Cl)nc1 | 87 to 89 °C
CN1CCN(c2c3c(nc4cc(Cl)ccc24)CCN(C)C3)CC1 | 114 to 115 °C
COc1ccc(C=C[N+](=O)[O-])cc1OC1CCCC1 | 133 to 134 °C
CCC(CC)N(C)c1cc(C(=O)OC)ccc1N1C(=O)CCC1(CO)CO | 142 to 143 °C
CCOC(=O)c1cc2cccc(N(C)S(=O)(=O)c3cccs3)c2n1COC | 143 to 145 °C
CC(=O)OC1C(OC(=O)c2ccccc2)C(COC(=O)c2ccccc2)OC1n1cc(F)c(=O)[nH]c1=O (stereo not drawn) | 96 to 98 °C
CSc1ncc(C#N)c(NC2CCCC2)n1 | 119 to 122 °C
FC(F)(F)C(=Cc1ccccc1)c1ccc(Cl)cc1 | 63 to 66 °C
CC(C)(CO)C(O)C(Oc1ccc(Cl)cc1)n1cncn1 (stereo not drawn) | 110 to 112 °C
CC(=NNc1ccc(C(F)(F)F)cc1)C(=O)NCc1ccc(Cl)cc1 | 124 to 125 °C

More lines, now with the values ahead:

melting point | SMILES
163 to 164 °C | CC(=O)Nc1c(C#N)cnn1-c1c(Cl)cc(Cl)cc1Cl
169 to 171 °C | CC(=O)Nc1ccc(N2CCN(c3ccc(OCC(O)(Cn4cncn4)c4ccc(Cl)cc4Cl)cc3)CC2)cc1 (stereo not drawn)
> 300 °C | O=C1NC(=O)c2nc3ccccc3cc21
158 to 160 °C | Cc1nnc2c(C(C)Oc3ccc(Cl)cc3)ccnn12 (stereo not drawn)
108 to 109 °C | CC1=C(c2ccccc2)C(=O)N(C(C)(C)c2ccccc2)CC1
120 °C | O=C(c1ccccc1)c1cc([N+](=O)[O-])ccc1NCc1ccccc1
96 to 97 °C | CCOC(=O)NC(C)C(=O)c1ccc2cc(OC)ccc2c1 (single isomer, unassigned; (+))
185 °C | COCC(=O)OC1(C(=O)CO)CCC2C3CCC4=CC(=O)CCC4(C)C3C(O)CC21C (stereo not drawn)
122 to 125 °C | COC(=O)c1ccc(C(=O)c2ccc(CCl)cc2)cc1
81 °C | COC(=O)C(Oc1nc(OC)cc(OC)n1)C(OC)(c1ccccc1)c1ccccc1 (stereo not drawn)
167 °C | FC(F)(F)c1cccc(N2CCN(CC[C@H]3CC[C@H](Nc4ncccn4)CC3)CC2)c1
180 to 182 °C | CCOC(=O)c1c(C)nc2[nH]ncc2c1OCC
179 to 180 °C | CC(C)c1[nH]nc(C(N)=O)c1[N+](=O)[O-]
182 to 184 °C | FC(F)(F)c1ccc(CN2CC3(COc4cc5c(cc43)CCO5)c3c(Br)cccc32)o1 (stereo not drawn)
84 to 86 °C | C#CC[C@H]1CC[C@H](C(=O)O)CC1
182 to 184 °C | CCCCc1ncc(/C=C(\Cc2cccs2)C(=O)O)n1Cc1cccc([N+](=O)[O-])c1
150 to 151 °C | CCN(C(=O)C(C)n1c(=O)n(C)c2nc(-c3ccccc3)ncc21)c1ccccc1 (stereo not drawn)
55 °C | COc1cc2c(cc1Br)c1ccccc1n2CCC(C)CCCC(C)C (stereo not drawn)
211 °C | CC(C)(C)c1cc(C(C(=O)O)c2cc(C(C)(C)C)c(O)c(C(C)(C)C)c2)cc(C(C)(C)C)c1O

melting point | SMILES
142 to 145 °C | COC(C(=O)O)C(=O)Nc1cc(Cl)cc(Cl)c1 (stereo not drawn)
110 to 112 °C | COc1ccc2c(c1)S(=O)(=O)C(C(=O)NCCCCCC(=O)O)C(=O)N2C (stereo not drawn)
106 to 107 °C | COc1ccc(-n2nc(C(C)C)cc2-c2ccc(OCCNC(N)=O)cc2)cn1
165 to 166 °C | N#CCCNC(=O)c1cccc(-c2cccc3nn(Cc4ccc(F)c(Cl)c4)cc23)c1
177 °C | COC(=O)c1ccccc1S(=O)(=O)N(c1ccn(-c2nc(C)cc(C)n2)n1)S(=O)(=O)c1ccccc1C(=O)OC
166 to 168 °C | CCC(=O)N(c1ccncc1)c1c[nH]c2ccccc12
187 to 189 °C | Cc1cnc(N)c(S(N)(=O)=O)c1
133 to 135 °C | CC(c1ccc(C(F)(F)F)cc1)N(O)C(N)=O (stereo not drawn)
245 to 247 °C | COc1ccccc1NC(=O)Nc1nc(Nc2ccccc2-c2ccccc2)nc(N2CCCC(C(=O)O)C2)n1 (stereo not drawn)
123 °C | NC(=O)[C@H]1CN2C(=O)N(c3cc(Cl)cc(Cl)c3)C(=O)[C@]2(Cc2ccc(OC(F)(F)F)cc2)C1
123 to 126 °C | CC(=O)OC1CSC(Oc2cccc(-c3cccnc3)c2)C(OC(C)=O)C1OC(C)=O (stereo not drawn)
228 to 230 °C | O=C(Oc1ccc([N+](=O)[O-])cc1)c1cnc2cc(I)ccc2n1
124 to 125 °C | ClC1=Nc2nc(C3CCCC3)n(Cc3ccccc3)c2C2=N[C@H](Cc3ccccc3)CN12
180 to 190 °C | COc1ccc(-n2c(N)cc(=O)nc2Nc2ccccc2)cc1
193 °C | Nc1nc2cccnc2n1Cc1ccco1
167 to 168 °C | CCC(C)C(=O)Nc1c(C(O)(C(F)(F)F)C(F)(F)F)ccc2ccccc12 (stereo not drawn)
318 °C | O=c1c2cc(O)c(O)cc2c2cc(O)c(O)cc2n1Cc1ccc(Cl)c(Cl)c1
110 to 112 °C | CNC(=O)OCc1c(COC(=O)NC)c(-c2ccc(OC)cc2)n2c1Cc1cc(OC)ccc1-2
177 to 178 °C | CC(C)c1cccc(C(C)C)c1-n1nn[nH]c1=O
